Target: T1, ER (Homo sapiens, UniProt P03372)
T1 construct: endogenous in cells; probably T47D or MCF-7
T1 sequence (P03372 1-595): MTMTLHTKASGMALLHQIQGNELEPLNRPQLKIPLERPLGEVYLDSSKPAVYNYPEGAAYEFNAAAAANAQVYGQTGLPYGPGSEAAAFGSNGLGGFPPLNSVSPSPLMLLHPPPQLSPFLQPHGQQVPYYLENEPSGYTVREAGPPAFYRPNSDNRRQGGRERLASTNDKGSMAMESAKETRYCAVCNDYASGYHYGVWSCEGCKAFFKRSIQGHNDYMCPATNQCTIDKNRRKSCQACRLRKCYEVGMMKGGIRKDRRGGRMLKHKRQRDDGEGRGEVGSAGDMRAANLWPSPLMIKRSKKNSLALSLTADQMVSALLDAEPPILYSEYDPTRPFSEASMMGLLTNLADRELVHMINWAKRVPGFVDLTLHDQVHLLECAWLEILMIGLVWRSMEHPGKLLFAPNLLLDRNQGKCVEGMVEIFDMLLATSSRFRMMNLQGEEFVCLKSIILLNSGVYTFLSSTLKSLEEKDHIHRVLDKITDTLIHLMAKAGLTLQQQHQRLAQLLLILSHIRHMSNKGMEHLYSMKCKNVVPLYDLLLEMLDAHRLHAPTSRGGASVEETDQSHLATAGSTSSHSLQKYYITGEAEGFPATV
Assay: Western blot analysis (compounds B1-B126)
Assay type: cell-based
Details: ER degradation, read-out: Traditional Western Degradation potency (DC50)
Experimental: Western Blot Analysis. The cells that are treated with the compounds are lysed in Radioimmunoprecipitation Assay Protein Lysis and Extraction Buffer (e.g., 25 mmol/L Tris.HCl, pH 7.6, 150 mmol/L NaCl, 1% Nonidet P-40, 1% sodium deoxycholate, and 0.1% sodium dodecyl sulfate) containing proteinase inhibitor cocktail. Equal amounts of total protein are electrophoresed through 10% SDS-polyacrylamide gels after determination of protein concentration by BCA assay. The separated protein bands are transferred onto PVDF membranes and blotted against different antibodies. The blots are scanned, and the band intensities are quantified (e.g., by using GelQuant.NET software provided by biochemlabsolutions.com). The relative mean intensity of target proteins is expressed after normalization to the intensity of glyceraldehyde-3-phosphate dehydrogenase bands.
Western Blot Analysis. Western blot analysis was performed essentially as described previously. The cells treated with indicated compounds were lysed in Radioimmunoprecipitation Assay Protein Lysis and Extraction Buffer (25 mmol/L Tris.HCl, pH 7.6, 150 mmol/L NaCl, 1% Nonidet P-40, 1% sodium deoxycholate, and 0.1% sodium dodecyl sulfate) containing proteinase inhibitor cocktail (Roche Diagnostics, Mannheim, Germany). Equal amounts of total protein were electrophoresed through 10% SDS-polyacrylamide gels after determination of protein concentration by BCA assay (Fisher Scientific, Pittsburgh, PA). The separated protein bands were transferred onto PVDF membranes (GE Healthcare Life Sciences, Marlborough, MA) and blotted against different antibodies, as indicated. The blots were scanned, and the band intensities were quantified using GelQuant.NET software provided by biochemlabsolutions.com. The relative mean intensity of target proteins was expressed after normalization to the intensity of glyceraldehyde-3-phosphate dehydrogenase bands.

SMILES	DC50 [µM]
C[C@@H]1Cc2c(ccc3[nH]ncc23)[C@@H](c2c(F)cc(N3CCC(CN4CCN(c5cc6c(cc5F)C(=O)N(C5CCC(=O)NC5=O)C6=O)CC4)CC3)cc2F)N1CC(F)F (stereo partly drawn) [Compound B66, 5-(4-((1-(4-((6S,8R)-7-(2,2-difluoroethyl)-8-methyl-6,7,8,9-tetrahydro-3H-pyrazolo[4,3-f]isoquinolin-6-yl)-3,5-difluorophenyl)piperidin-4-yl)mcthyl)pipcrazin-1-yl)-2-(2,6-dioxopiperidin-3-yl)-6-fluoroisoindoline-1,3-dione]	0.01 to 0.1
C[C@@H]1Cc2c(ccc3[nH]ncc23)[C@@H](c2c(F)cc([C@H]3CC[C@H](C(=O)N4CC(CN5Cc6cc7c(cc6C5)C(=O)N(C5CCC(=O)NC5=O)C7=O)C4)CC3)cc2F)N1CC(F)F (stereo partly drawn) [Compound B3, 6-((1-((1S,4r)-4-(4-((6S,8R)-7-(2,2-difluoroethyl)-8-methyl-6,7,8,9-tetrahydro-3H-pyrazolo[4,3-f]isoquinolin-6-yl)-3,5-difluorophenyl)cyclohexane-1-carbonyl)azetidin-3-yl)methyl)-2-(2,6-dioxopiperidin-3-yl)-6,7-dihydropyrrolo[3,4-f]isoindole-1,3(2H,5H)-dione]	> 0.1
C[C@@H]1Cc2c(ccc3[nH]ncc23)[C@@H](c2c(F)cc(N3CCC4(CCN(CC(=O)N5Cc6cc7c(cc6C5)C(=O)N(C5CCC(=O)NC5=O)C7=O)CC4)CC3)cc2F)N1CC(F)F (stereo partly drawn) [Compound B5, 6-(2-(9-(4-((6S,8R)-7-(2,2-difluoroethyl)-8-methyl-6,7,8,9-tetrahydro-3H-pyrazolo[4,3-f]isoquinolin-6-yl)-3,5-difluorophenyl)-3,9-diazaspiro[5.5]undecan-3-yl)acetyl)-2-(2,6-dioxopiperidin-3-yl)-6,7-dihydropyrrolo[3,4-f]isoindole-1,3(2H,5H)-dione]	0.01 to 0.1
C[C@@H]1Cc2c(ccc3[nH]ncc23)[C@@H](c2c(F)cc(N3CCC(CN4CCN(c5ccc6c(c5)C(=O)N(C5CCC(=O)NC5=O)C6=O)CC4)CC3)cc2F)N1CC(F)F (stereo partly drawn) [Compound B65, 5-(4-((1-(4-((6S,8R)-7-(2,2-difluoroethyl)-8-methyl-6,7,8,9-tetrahydro-3H-pyrazolo[4,3-f]isoquinolin-6-yl)-3,5-difluorophenyl)piperidin-4-yl)methyl)piperazin-1-yl)-2-(2,6-dioxopiperidin-3-yl)isoindoline-1,3-dione]	0.01 to 0.1
C[C@@H]1Cc2c(ccc3[nH]ncc23)[C@@H](c2c(F)cc(N3CCC(CN4CCC(N5Cc6cc7c(cc6C5)C(=O)N(C5CCC(=O)NC5=O)C7=O)CC4)CC3)cc2F)N1CC(F)F (stereo partly drawn) [Compound B70, 6-(1-((1-(4-((6S,8R)-7-(2,2-difluoroethyl)-8-methyl-6,7,8,9-tetrahydro-3H-pyrazolo[4,3-f]isoquinolin-6-yl)-3,5-difluorophenyl)piperidin-4-yl)methyl)piperidin-4-yl)-2-(2,6-dioxopiperidin-3-yl)-6,7-dihydropyrrolo[3,4-f]isoindole-1,3(2H,5H)-dione]	0.01 to 0.1
C[C@@H]1Cc2c(ccc3[nH]ncc23)[C@@H](c2c(F)cc(N3CCC(CN4CCC(N5Cc6cc7c(cc6C5)C(=O)N(C5CCC(=O)NC5=O)C7)CC4)CC3)cc2F)N1CC(F)F (stereo partly drawn) [Compound B71, 3-(6-(1-((1-(4-((6S,8R)-7-(2,2-difluoroethyl)-8-methyl-6,7,8,9-tetrahydro-3H-pyrazolo[4,3-f]isoquinolin-6-yl)-3,5-difluorophenyl)piperidin-4-yl)methyl)piperidin-4-yl)-1-oxo-3,5,6,7-tetrahydropyrrolo[3,4-f]isoindol-2(1H)-yl)piperidine-2,6-dione]	0.01 to 0.1
C[C@@H]1Cc2c(ccc3[nH]ncc23)[C@@H](c2c(F)cc(C3CCN(C(=O)[C@H]4CC[C@H](N5Cc6cc7c(cc6C5)C(=O)N(C5CCC(=O)NC5=O)C7=O)CC4)CC3)cc2F)N1CC(F)F (stereo partly drawn) [Compound B7, 6-((1S,4r)-4-(4-(4-((6S,8R)-7-(2,2-difluoroethyl)-8-methyl-6,7,8,9-tetrahydro-3H-pyrazolo[4,3-f]isoquinolin-6-yl)-3,5-difluorophenyl)piperidine-1-carbonyl)cyclohexyl)-2-(2,6-dioxopiperidin-3-yl)-6,7-dihydropyrrolo[3,4-f]isoindole-1,3(2H,5H)-dione]	> 0.1

Results, then the compound that gave them:

DC50 [µM]	SMILES
< 0.01	C[C@@H]1Cc2c(ccc3[nH]ncc23)[C@@H](c2c(F)cc(N3CCC(CN4CCC(N5Cc6cc7c(cc6C5=O)CN(C5CCC(=O)NC5=O)C7=O)CC4)CC3)cc2F)N1CC(F)F (stereo partly drawn) [Compound B19, 2-(1-((1-(4-((6S,8R)-7-(2,2-difluoroethyl)-8-methyl-6,7,8,9-tetrahydro-3H-pyrazolo[4,3-f]isoquinolin-6-yl)-3,5-difluorophenyl)piperidin-4-yl)methyl)piperidin-4-yl)-6-(2,6-dioxopiperidin-3-yl)-2,3,6,7-tetrahydropyrrolo[3,4-f]isoindole-1,5-dione]
< 0.01	C[C@@H]1Cc2c(ccc3[nH]ncc23)[C@@H](c2c(F)cc([C@H]3CC[C@@H](C(=O)N4CCC(N5Cc6cc7c(cc6C5)C(=O)N(C5CCC(=O)NC5=O)C7=O)CC4)CC3)cc2F)N1CC(F)F (stereo partly drawn) [Compound B1, 6-(1-((1R,4s)-4-(4-((6S,8R)-7-(2,2-difluoroethyl)-8-methyl-6,7,8,9-tetrahydro-3H-pyrazolo[4,3-f]isoquinolin-6-yl)-3,5-difluorophenyl)cyclohexane-1-carbonyl)piperidin-4-yl)-2-(2,6-dioxopiperidin-3-yl)-6,7-dihydropyrrolo[3,4-f]isoindole-1,3(2H,5H)-dione]
< 0.01	C[C@@H]1Cc2c(ccc3[nH]ncc23)[C@@H](c2c(F)cc(N3CCC4(CC3)CN(C(=O)CN3Cc5cc6c(cc5C3)C(=O)N(C3CCC(=O)NC3=O)C6=O)C4)cc2F)N1CC(F)F (stereo partly drawn) [Compound B4, 6-(2-(7-(4-((6S,8R)-7-(2,2-difluoroethyl)-8-methyl-6,7,8,9-tetrahydro-3H-pyrazolo[4,3-f]isoquinolin-6-yl)-3,5-difluorophenyl)-2,7-diazaspiro[3.5]nonan-2-yl)-2-oxoethyl)-2-(2,6-dioxopiperidin-3-yl)-6,7-dihydropyrrolo[3,4-f]isoindole-1,3(2H,5H)-dione]
< 0.01	C[C@@H]1Cc2c(ccc3[nH]ncc23)[C@@H](c2ccc(C3=CCC(C(=O)N4CCC(N5Cc6cc7c(cc6C5)C(=O)N(C5CCC(=O)NC5=O)C7=O)CC4)CC3)cn2)N1CC(F)(F)F (stereo partly drawn) [Compound B11, 2-(2,6-dioxopiperidin-3-yl)-6-(1-(4-(6-((6S,8R)-8-methyl-7-(2,2,2-trifluoroethyl)-6,7,8,9-tetrahydro-3H-pyrazolo[4,3-f]isoquinolin-6-yl)pyridin-3-yl)cyclohex-3-ene-1-carbonyl)piperidin-4-yl)-6,7-dihydropyrrolo[3,4-f]isoindole-1,3(2H,5H)-dione]
< 0.01	C[C@@H]1Cc2c(ccc3[nH]ncc23)[C@@H](c2c(F)cc([C@H]3CC[C@H](C(=O)N4CCC(N5Cc6cc7c(cc6C5)C(=O)N(C5CCC(=O)NC5=O)C7=O)CC4)CC3)cc2F)N1CC(F)F (stereo partly drawn) [Compound B2, 6-(1-((1S,4r)-4-(4-((6S,8R)-7-(2,2-difluoroethyl)-8-methyl-6,7,8,9-tetrahydro-3H-pyrazolo[4,3-f]isoquinolin-6-yl)-3,5-difluorophenyl)cyclohexane-1-carbonyl)pipcridin-4-yl)-2-(2,6-dioxopiperidin-3-yl)-6,7-dihydropyrrolo[3,4-f]isoindole-1,3(2H,5H)-dione]
< 0.01	COc1c2c(cc3c1C(=O)N(C1CCC(=O)NC1=O)C3=O)CN(CC(=O)N1CCC3(CC1)CCN(c1cc(F)c([C@@H]4c5ccc6[nH]ncc6c5C[C@@H](C)N4CC(F)F)c(F)c1)CC3)C2 (stereo partly drawn) [Compound B17, 6-(2-(9-(4-((6S,8R)-7-(2,2-difluoroethyl)-8-methyl-6,7,8,9-tetrahydro-3H-pyrazolo[4,3-f]isoquinolin-6-yl)-3,5-diazaspiro[5.5]undecan-3-yl)-2-difluorophenyl)-3,9-oxoethyl)-2-(2,6-dioxopiperidin-3-yl)-4-methoxy-6,7-dihydropyrrolo[3,4-f]isoindole-1,3(2H,5H)-dione]

Source: patent publication US20260256925A1, “INDAZOLE DERIVATIVES AS ESTROGEN RECEPTOR DEGRADERS” (REGENTS OF THE UNIVERSITY OF MICHIGAN, priority 2022, published 2026)
